Experimental data from patent US20070082956A1, “The use of 1-amino-alkylcyclohexane compounds in the treatment of pain hypersensitivity” (MERZ PHARMA GmbH & Co. KGaA, priority 2003, published 2007).

Tested on: intradermal capsaicin injection model (secondary hyperalgesia)
Experiment: Human surrogate model of neuropathic pain (intradermal capsaicin injection), placebo-controlled double-blind crossover study
Assay type: in vivo
Protocol: This surrogate model of neuropathic pain is thus a valid method for early clinical testing of substances for the treatment of neuropathic pain. The efficacy of the neramexane, a moderate affinity, uncompetitive NMDA receptor antagonist, was tested in a placebo-controlled double-blind crossover study in the intradermal capsaicin injection model. Capsaicin (40 μg) was injected intradermally in the skin of the ventral forearm 3 hours after administration of a single oral dose of neramexane hydrochloride (40 mg) or placebo. Changes of pain sensitivity adjacent to the capsaicin injection and in a remote control area were tested in parallel by quantitative sensory testing prior to oral neramexane or placebo, 2½ hours after neramexane or placebo (i.e., prior to capsaicin injection) and 1½ hours after capsaicin injection. The capsaicin injection elicited a strong, over 5-10 min rapidly declining burning pain resulting in enhanced pain sensitivity adjacent to the injection including hyperalgesia to pin prick and pain to light touch (“allodynia”).

**Q.** How did the “size of the capsaicin-induced axon reflex erythema” value (single oral dose 40 mg) turn out when `CC1(C)CC(C)(C)CC(C)(N)C1` [neramexane, 1-amino-1,3,3,5,5-pentamethylcyclohexane] was run?
**A.** The value was “remained unaltered”.

**Q.** What about the “summation of pain to repetitive pin prick stimulation (trains of 10 stimuli at 1 Hz)” value (single oral dose 40 mg) of the same compound?
**A.** The value was “never changed”.

**Q.** And the “reduction of capsaicin-induced burning pain compared to placebo” value (single oral dose 40 mg, 2nd-5th min after capsaicin injection, n.s.)?
**A.** Its value is 33%.

**Q.** What about the “reduction of pain to stroking light touch stimuli (allodynia)” value (single oral dose 40 mg, across all test times, p=0.07) of the same compound?
**A.** Its value is 22%.

**Q.** What about the “reduction of pain of noxious pin pricks compared to placebo (analgesia)” value (single oral dose 40 mg, control area at any time and test area before capsaicin injection, p<0.001) of the same compound?
**A.** The value was 27-31%.

**Q.** What about the “reduction of pain to stroking light touch stimuli (allodynia)” value (single oral dose 40 mg, first 30 min after capsaicin injection, p<0.05) of the same compound?
**A.** Its value is 25%.

**Q.** And the “antihyperalgesia alone, calculated from the ratio of test and control area” value (single oral dose 40 mg, not significant)?
**A.** The value was 9%.

**Q.** What about the “reduction of pin prick pain compared to placebo (combined analgesia and antihyperalgesia)” value (single oral dose 40 mg, test area after capsaicin injection, p<0.001) of the same compound?
**A.** The value was 39%.

**Q.** And the “reduction of capsaicin-induced burning pain compared to placebo” value (single oral dose neramexane hydrochloride 40 mg, 3 hours before capsaicin 40 μg intradermal, first minute after injection, p<0.01)?
**A.** The value was 21%.
